# Data taken from patent US3956492A, “Pharmaceutical compositions containing a 3-(amino-methylene)-5-phenyl-1,4-benzodiazepin-2-one and method of use” (Boehringer Ingelheim GmbH, priority 1972, dated 1976).
# Like-named read-outs stand apart in the source and are kept apart here.
# Columns and labels:
# Format in all cases: in vivo
# female NMRI-mice = assay: Muscle-relaxing and sedative activity by the method of Young and Lewis (holding ability in slowly rotating inclined wire-mesh cylinders); details: Mus musculus, po, 50% of animals fall out of cylinders
# Experimental: The muscle-relaxing and sedative activities were tested by the method of Young and Lewis [Science 105, 368 (1947)]on female NMRI-mice of our own breed with a body weight between 20 and 26 gm by means of slowly turning wire-mesh cylinders, inclined at 30° from the vertical (length : 43 cm; diameter : 22 cm; mesh-size of the wire netting : 0.6 cm). After peroral administration of the test compound in the form of a 1% suspension in tylose to groups of 10 mice/dose their holding ability in the slowly rotating cylinders was tested (2 rotations/minute) against a control group. The median effective dose (ED50) was graphically determined which caused 50% of the animals to fall out of the cylinders at various time intervals after administration.
# male NMRI-mice = assay: Anticonvulsive activity, protective effect against the maximum electro-shock-spasm; details: Mus musculus, po, p.o., 50% protected against tonic extensor component
# Experimental: The anticonvulsive activity was tested in terms of the protective effect against the maximum electro-shock-spasm in male NMRI-mice of our own breed with a body weight between 20 and 26 gm analogous to Swinyard, Brown and Goodman [J. Pharmacol. exp. Therap. 106, 319 (1952)]. The animals were exposed to an alternating current of 50 cycles and 50 milliamperes (duration of stimulation 0.2 seconds), where the occurrence of the tonic extensor spasm was valued as positive. After peroral administration of the test compound in the form of a 1% suspension in tylose, the dose (ED50) was graphically determined which protected 50% of the animals against the tonic extensor component of the back extremities after various time intervals.
# mice = assay: Effect on spontaneous motility (sedative activity); details: Mus musculus, po, motility decreased by 50% vs control animals
# Source text: The sedative activity was further determined on mice in terms of the decreasing effect upon the spontaneous motility. The motility of 8 mice per dose of test compound was compared to the motility of 8 control animals; each group was placed into separate motility-measuring cages (diameter : 25 cm), with 10 photoelectric cells in the floor and a light source above the cage. After peroral administration of the test compound the dose was graphically determined which decreased the motility by 50%, compared to the control animals, at various time intervals after administration.
# adult laboratory mice = assay: Standard acute toxicity tests; details: group of 10 adult laboratory mice
# Experimental: It should be added that the compounds of the formula I are virtually non-toxic. For instance, by standard acute toxicity tests were determined that even massive doses of 6400 mgm/kg p.o. of compound A or 3200 mgm/kg p.o. of compounds B or C produced no deaths in a group of 10 adult laboratory mice within 14 days.
# [1] = after 30-60 min., read-out: ED50 after 30-60 min.
# [2] = after 90-120 min., read-out: ED50 after 90-120 min.
# [3] = after 210-240 min., read-out: ED50 after 210-240 min.
# [4] = after 270-300 min., read-out: ED50 after 270-300 min.
# [5] = 0.5 h, after 30 min., read-out: ED50 after 30 min.
# [6] = 2.5 h, after 150 min., read-out: ED50 after 150 min.
# [7] = 5 h, after 300 min., read-out: ED50 after 300 min.
# [8] = after 90-95 min., read-out: ED50 after 90-95 min.
# [9] = after 150-155 min., read-out: ED50 after 150-155 min.
SMILES,ED50 (female NMRI-mice; [1]) [mg/kg],ED50 (female NMRI-mice; [2]) [mg/kg],ED50 (female NMRI-mice; [3]) [mg/kg],ED50 (female NMRI-mice; [4]) [mg/kg],ED50 (male NMRI-mice; [5]) [mg/kg],ED50 (male NMRI-mice; [6]) [mg/kg],ED50 (male NMRI-mice; [7]) [mg/kg],ED50 (mice; [8]) [mg/kg],ED50 (mice; [9]) [mg/kg],deaths within 14 days (adult laboratory mice; 3200 mgm/kg p.o.),deaths within 14 days (adult laboratory mice; 6400 mgm/kg p.o.)
"CN1C(=O)C(=CN)N=C(c2ccccc2Cl)c2cc(I)ccc21 [H, 3-(amino-methylene)-5-(2'-chloro-phenyl)-1,3-dihydro-7-iodo-1-methyl-2H-1,4-benzodiazepin-2-one]",2.6,1.5,2.7,1.6,38,30,16,–,–,–,–
"CN1C(=O)C(=CN2CCOCC2)N=C(c2ccccc2Cl)c2cc(Br)ccc21 [D, 7-bromo-5-(2'-chloro-phenyl)-1,3-dihydro-1-methyl-3-(morpholino-methylene)-2H-1,4-benzodiazepin-2-one]",33,26,16,13,200,31,34,4.4,5.2,–,–
"CN1C(=O)C(=CN)N=C(c2ccccc2Cl)c2cc(Br)ccc21 [Compound E, 3-(amino-methylene)-7-bromo-5-(2'-chloro-phenyl)-1,3-dihydro-1-methyl-2H-1,4-benzodiazepin-2-one]",7,7,5,6,18,17,26,–,–,–,–
"CCNC=C1N=C(c2ccccc2Cl)c2cc(Cl)ccc2N(C)C1=O [C, 3-(ethylamino-methylene)-7-chloro-5-(2'-chloro-phenyl)-1,3-dihydro-1-methyl-2H-1,4-benzodiazepin-2-one]",2,3,11,3,200,28,36,–,–,no deaths,–
"NC=C1N=C(c2ccccc2Cl)c2cc(Cl)ccc2NC1=O [B, 3-(amino-methylene)-7-chloro-5-(2'-chloro-phenyl)-1,3-dihydro-2H-1,4-benzodiazepin-2-one]",13,3,10,11,85,28,43,–,–,no deaths,–
"CN1C(=O)C(=CN2CCOCC2)N=C(c2ccccc2Cl)c2cc(Cl)ccc21 [A, 7-chloro-5-(2'-chloro-phenyl)-1,3-dihydro-1-methyl-3-(morpholino-methylene)-2H-1,4-benzodiazepin-2-one]",14,5,14,3,100,18,13,–,–,–,no deaths
"NC=C1N=C(c2ccccc2Cl)c2cc(Br)ccc2NC1=O [F, 3-(amino-methylene)-7-bromo-5-(2'-chloro-phenyl)-1,3-dihydro-2H-1,4-benzodiazepin-2-one]",0.5,0.7,0.7,1.9,70,14.5,16,8.15,3.76,–,–
"CCNC=C1N=C(c2ccccc2Cl)c2cc(Br)ccc2NC1=O [G, 3-(ethylamino-methylene)-7-bromo-5-(2'-chloro-phenyl)-1,3-dihydro-2H-1,4-benzodiazepin-2-one]",2.4,1.25,2.1,2.4,37,8.8,22,1.56,2.45,–,–
